# Where two headings read alike, the source gives them in different places. Non-standard residues stand in square brackets, D forms with d. Residues, ends and D or L forms follow the SMILES beside them. No end group written: not given here.
# What was measured:
# ET receptor = conditions: allergic sheep; cited from earlier work
# isolated rat hearts = conditions: cited from earlier work; for preischemic increase in coronary perfusion pressure induced by big ET-1 and its preischemic effect: phosphoramidon (IC50 =100 μM), BQ-123 0.3 μM; for time to contracture in globally ischemic rat hearts: 30 pMol ET-1 or 10 nMol big ET-1 pretreatment; for IC50: isolated rat hearts, read-out: IC50, reduction of coronary flow
# ETA = conditions: endotoxic shock, mouse; cited from earlier work
# SHR = conditions: IV infusion; cited from earlier work
# human ECE-1 = target: T1, human ECE-1 (Homo sapiens, UniProt P42892); assay: ECE-1 Assay (ET-1 formed from big ET-1, by Elisa); format: biochemical; conditions: solubilized membrane fraction of CHO/human ECE-1 cells, 0.1 μM big ET-1, pH 7.0, 1 hour at 37° C.
# T1 construct: expressed in transfected cells
# T1 sequence (P42892 1-770): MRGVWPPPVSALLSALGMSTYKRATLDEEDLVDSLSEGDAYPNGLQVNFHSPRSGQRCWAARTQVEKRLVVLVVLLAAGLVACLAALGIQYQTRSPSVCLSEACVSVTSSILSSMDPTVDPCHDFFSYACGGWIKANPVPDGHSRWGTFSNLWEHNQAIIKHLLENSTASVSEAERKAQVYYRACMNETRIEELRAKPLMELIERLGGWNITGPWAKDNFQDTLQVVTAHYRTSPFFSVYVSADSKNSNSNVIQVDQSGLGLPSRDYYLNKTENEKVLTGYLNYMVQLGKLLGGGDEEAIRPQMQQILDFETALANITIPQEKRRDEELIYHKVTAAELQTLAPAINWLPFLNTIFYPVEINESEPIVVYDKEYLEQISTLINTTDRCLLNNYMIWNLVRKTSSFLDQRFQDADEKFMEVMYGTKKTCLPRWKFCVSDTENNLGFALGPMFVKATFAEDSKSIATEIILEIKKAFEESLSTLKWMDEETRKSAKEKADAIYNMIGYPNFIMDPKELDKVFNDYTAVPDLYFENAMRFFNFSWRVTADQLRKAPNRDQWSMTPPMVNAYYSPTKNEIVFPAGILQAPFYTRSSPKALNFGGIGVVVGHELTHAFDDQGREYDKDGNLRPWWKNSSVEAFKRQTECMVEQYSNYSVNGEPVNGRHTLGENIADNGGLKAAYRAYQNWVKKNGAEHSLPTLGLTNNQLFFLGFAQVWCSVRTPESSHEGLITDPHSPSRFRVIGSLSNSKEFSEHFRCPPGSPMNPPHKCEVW
# Method: All cells were grown in a humidified incubator at 37° C. in an atmosphere of 5% CO2/95% air. The membrane fractions from CHO cells were prepared as described in (Cell 1994; (78):473-485). ECE-1 Assay […] The final concentration of DMSO was 1.5%. […] This final mixture was then directly analyzed for the amount of ET-1 by enzyme-linked immunosorbant assay (Elisa).
# endothelin = conditions: rats; cited from earlier work
# ECE = ECE in vitro, cited from earlier work
# [1] = tested on: pulmonary vascular resistance; conditions: young piglets; cited from earlier work
# [2] = tested on: effects of intracisternal big ET-1; conditions: anesthetized dogs; cited from earlier work
# [3] = tested on: pressor response of big ET; conditions: cited from earlier work
# infarct size = conditions: IV, 24 hour postischemia; cited from earlier work
# [4] = tested on: hemodynamic actions of big ET-1; conditions: rat brain; cited from earlier work
# [5] = tested on: pressor response of big ET-1; conditions: ganglion-blocked anesthetized rats; cited from earlier work
# [6] = tested on: effects of big ET-1 in the microvasculature; conditions: anesthetized hamsters; cited from earlier work
# [7] = tested on: lethality induced by big ET-1; conditions: in vivo; cited from earlier work
# [8] = tested on: vasoconstrictor effects evoked by big ET-1; conditions: anaesthetized pigs; cited from earlier work
# vascular strips = conditions: cited from earlier work
# [9] = in vivo; cited from earlier work
# gastric mucosa = conditions: 50 to 500 pmol/kg into the left gastric artery; cited from earlier work
compound,measurement,setting,value
CC(C)C[C@@H]1NC(=O)[C@@H](C(C)C)NC(=O)[C@@H]2CCCN2C(=O)[C@@H](CC(=O)O)NC(=O)[C@@H](Cc2c[nH]c3ccccc23)NC1=O [BQ-123] (cyclo(L[dW][dD]P[dV])),ET-1-induced bronchoconstriction and tracheal smooth muscle contraction,ET receptor,block ET-1-induced bronchoconstriction and tracheal smooth muscle contraction in allergic sheep
same,preischemic increase in coronary perfusion pressure induced by big ET-1 and its preischemic effect,isolated rat hearts,abolished the preischemic increase in coronary perfusion pressure induced by big ET-1 as well as its preischemic effect
same,survival rate,ETA,significantly increased the survival rate in this model
O=P(O)(O)CNC(Cc1ccc(-c2ccccc2)cc1)c1nn[nH]n1 (stereo not drawn) [CGS 26303],antihypertensive responses in the SHR,SHR,effective at lowering the antihypertensive responses in the SHR
"COc1cc(C(=O)O)nc(-c2csc(CCCCCC(C)O)n2)c1OC (stereo not drawn) [Example 1, 6-[2-(6-Hydroxy-heptyl)-thiazol-4-yl]-4,5-dimethoxy-pyridine-2-carboxylic acid]",IC50,human ECE-1,1300 nM
"COc1cc(C(=O)O)nc(-c2csc(C)n2)c1OC [Example 2, 6-(2-Methyl-thiazol-4-yl)-4,5-dimethoxy-pyridine-2-carboxylic acid]",IC50,human ECE-1,1900 nM
"CCCCCCCc1nc(-c2nc(C(=O)O)cc(OC)c2OC)cs1 [Example 3, 6-(2-Heptyl-thiazol-4-yl)-4,5-dimethoxy-pyridine-2-carboxylic acid]",IC50,human ECE-1,1300 nM
"COc1cc(C(=O)O)nc(-c2csc(N)n2)c1OC [Example 4, 6-(2-Amino-thiazol-4-yl)-4,5-dimethoxy-pyridine-2-carboxylic acid]",IC50,human ECE-1,1000 to 5000 nM
"CNc1nc(-c2nc(C(=O)O)cc(OC)c2OC)cs1 [Example 5, 6-(2-N-Methylamino-thiazol-4-yl)-4,5-dimethoxy-pyridine-2-carboxylic acid]",IC50,human ECE-1,1000 to 5000 nM
"COc1cc(C(=O)O)nc(-c2cscn2)c1OC [Example 6, 6-(Thiazol-4-yl)-4,5-dimethoxy-pyridine-2-carboxylic acid]",IC50,human ECE-1,5000 to 10000 nM
COc1cccc(Oc2c(NS(=O)(=O)c3ccc(C(C)(C)C)cc3)ncnc2OCCO)c1 [RO 46-2005],efficacy in acute renal ischemia and subarachnoid hemorrhage,endothelin,effective in models of acute renal ischemia and subarachnoid hemorrhage in rats
CC(C)C[C@H](NP(=O)(O)O[C@@H]1O[C@@H](C)[C@H](O)[C@@H](O)[C@H]1O)C(=O)N[C@@H](Cc1c[nH]c2ccccc12)C(=O)O [phosphoramidon],IC50,ECE,~1000 nM
same,IC50,ECE; listed as Phosphoramidon,1000 nM
same,elevated pulmonary vascular resistance after cardiopulmonary bypass,[1],reduce elevated pulmonary vascular resistance after cardiopulmonary bypass
same,decreased basilar artery caliber and elevated systemic arterial pressure by intracisternal big ET-1,[2],These effects were blocked by phosphoramidon
same,inhibition of effects of ET-1 (versus big ET-1),[3]; in all cases (studies cited in b8),inhibited the effects of big ET-1 and not ET-1
same,block of the pressor response of big ET,"[3]; micromolar concentrations, in vitro and in vivo",block the pressor response of big ET both in vitro and in vivo
same,infarct size,infarct size,significantly reduce infarct size 24 hour postischemia
same,inhibition of hemodynamic actions of big ET-1,[4],phosphoramidon sensitive inhibition of hemodynamic actions of big ET-1 in rat brain
same,pressor response of big ET-1,[5],blocked by phosphoramidon in a dose-dependent manner
same,effects of big ET-1 in the microvasculature,[6],inhibit the effects of big ET-1 in the microvasculature of anesthetized hamsters
same,lethality induced by intravenous infusion of big ET-1,[7],suppress the lethality induced by the intravenous infusion of big ET-1
same,preischemic increase in coronary perfusion pressure induced by big ET-1 and its preischemic effect,isolated rat hearts,abolished the preischemic increase in coronary perfusion pressure induced by big ET-1 as well as its preischemic effect
same,plasma ET-1 level,[8],did not have any effect on the plasma ET-1 level
same,vasoconstrictor effects evoked by intravenous injections of big ET-1,[8],inhibit vasoconstrictor effects evoked by intravenous injections of big ET-1
"Big ET: 38 (human) or 39 (porcine) amino acid peptide known as big endothelin or proendothelin (CSCSSLMDKECVYFCHLDIIWVNTPEHVVPYGLGSPRS; ends and bridges not checked; cysteine pairing not given here; UniProt P05305 53-90, looked up)",potency relative to ET-1 in inducing contractile activity,vascular strips,1%
same,potency relative to ET-1 at raising blood pressure,[9],equally potent in vivo at raising blood pressure
same,time to contracture in globally ischemic rat hearts,isolated rat hearts,significantly reduced the time to contracture
same,IC50,isolated rat hearts,2 nM
"ET-1: a potent vasoconstrictor, is a 21 amino acid bicyclic peptide",gastric mucosal hemorrhagic change,gastric mucosa,induced gastric mucosal hemorrhagic change in a dose-dependent manner
same,tissue type plasminogen activator release and platelet activating formation,gastric mucosa,increased the tissue type plasminogen activator release and platelet activating formation
same,time to contracture in globally ischemic rat hearts,isolated rat hearts,significantly reduced the time to contracture
same,IC50,isolated rat hearts,0.012 nM

# — patent US5891892A, “Small molecule biaryl compounds as inhibitors of endothelin converting enzyme” (Warner-Lambert Company, priority 1997, dated 1999)
